Legend:
[1] = test system: Klebsiella pneumoniae; assay: microbe, parasite or virus in culture; settings: ATCC 700603, 18 h, ASSAY_TEST Inhibition of Bacterial Growth, detection method Absorption (OD600), MEDIA CAMHB, plate type 384well, NBS, CORNING #3640
Description: Antibacterial activity against Klebsiella pneumoniae MDR ATCC 70063 (CO-ADD:GN_003); MIC in CAMBH media using NBS plates, by OD(600)

[2] = test system: Candida albicans; assay: microbe, parasite or virus in culture; settings: ATCC 90028, ASSAY_TEST Inhibition of Fungal Growth, detection method Absorption (OD530), plate type 384well, NBS, CORNING #3640
Description: Antifungal activity against Candida albicans ATCC 90028 (CO-ADD:FG_001); MIC in YNB media using NBS plates, by OD630

[3] = test system: Escherichia coli; assay: microbe, parasite or virus in culture; settings: ATCC 25922, 18 h, ASSAY_TEST Inhibition of Bacterial Growth, detection method Absorption (OD600), MEDIA CAMHB, plate type 384well, NBS, CORNING #3640
Description: Antibacterial activity against Escherichia coli ATCC 25922 (CO-ADD:GN_001); MIC in CAMBH media using NBS plates, by OD(600)

[4] = test system: Acinetobacter baumannii; assay: microbe, parasite or virus in culture; settings: ATCC 19606, 18 h, ASSAY_TEST Inhibition of Bacterial Growth, detection method Absorption (OD600), MEDIA CAMHB, plate type 384well, NBS, CORNING #3640
Description: Antibacterial activity against Acinetobacter baumannii ATCC 19606 (CO-ADD:GN_034); MIC in CAMBH media using NBS plates, by OD600

[5] = test system: Pseudomonas aeruginosa; assay: microbe, parasite or virus in culture; settings: ATCC 27853, 18 h, ASSAY_TEST Inhibition of Bacterial Growth, detection method Absorption (OD600), MEDIA CAMHB, plate type 384well, NBS, CORNING #3640
Description: Antibacterial activity against Pseudomonas aeruginosa ATCC 27853 (CO-ADD:GN_042); MIC in CAMBH media using NBS plates, by OD(600)

[6] = test system: Cryptococcus neoformans
Description: Antifungal activity against Cryptococcus neoformans H99 ATCC 208821 (CO-ADD:FG_002); MIC in YNB media using NBS plates, by Resazurin OD(600-570)

[7] = test system: HEK293; assay: cells; assay type: functional; settings: Homo sapiens, ATCC CRL1573, HEK293; ASSAY_TEST Inhibition of Cell Viability; detection method Resazurin; Fluorescence (ex560/em590); MEDIA DMEM with 10% FBS; plate type 384well; TC; CORNING #3712; time 18 hr
[8] = test system: Staphylococcus aureus; assay: microbe, parasite or virus in culture; settings: ATCC 43300, 18 h, ASSAY_TEST Inhibition of Bacterial Growth, detection method Absorption (OD600), MEDIA CAMHB, plate type 384well, NBS, CORNING #3640
Description: Antibacterial activity against Staphylococcus aureus MRSA ATCC 43300 (CO-ADD:GP_020); MIC in CAMBH media, using NBS plates, by OD(600)

Row | MIC [1] | MIC [2] | MIC [3] | MIC [4] | MIC [5] | MIC [6] | MIC [8] | Compound | CC50 [7]
1 | > 32 µg/mL | > 32 µg/mL | > 32 µg/mL | > 32 µg/mL | > 32 µg/mL | 16 µg/mL | > 32 µg/mL | Cl.N=C(N)Nc1nc(-c2c[nH]c3ccccc23)cs1 | 9.6 µg/mL
2 | > 32 µg/mL | > 32 µg/mL | > 32 µg/mL | > 32 µg/mL | > 32 µg/mL | > 32 µg/mL | > 32 µg/mL | NC(N)=Nc1nc(-c2csc3ccccc23)cs1 | > 32 µg/mL

Reference: ChEMBL document CHEMBL4513153, “CO-ADD screening of University of Northwestern St. Paul (MN, USA) compounds”
